Source: PubChem BioAssay (NCI)
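Grown in 96-well plates, cells were treated for 48 hours with each compound at five concentrations. Insufficient inhibition: endpoint recorded as highest concentration tested. GI50 = concentration required for 50% inhibition of growth. The concentration for full growth arrest is given as TGI.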

Key:
Assay in all cases: NCI tumour cell line growth inhibition, 48 h
HCT-116 colon = tested on: HCT-116 colon
TK-10 renal = tested on: TK-10 renal
SK-OV-3 ovarian = tested on: SK-OV-3 ovarian
OVCAR-8 ovarian = tested on: OVCAR-8 ovarian
COLO 205 colon = tested on: COLO 205 colon
EKVX NSCLC = tested on: EKVX NSCLC
MOLT-4 leukemia = tested on: MOLT-4 leukemia
CAKI-1 renal = tested on: CAKI-1 renal
SK-MEL-2 melanoma = tested on: SK-MEL-2 melanoma
OVCAR-5 ovarian = tested on: OVCAR-5 ovarian

Structure (SMILES)	TGI (HCT-116 colon) [µM]	TGI (TK-10 renal) [µM]	TGI (SK-OV-3 ovarian) [µM]	TGI (OVCAR-8 ovarian) [µM]	TGI (COLO 205 colon) [µM]	TGI (EKVX NSCLC) [µM]	TGI (MOLT-4 leukemia) [µM]	TGI (CAKI-1 renal) [µM]	TGI (SK-MEL-2 melanoma) [µM]	TGI (OVCAR-5 ovarian) [µM]	GI50 (TK-10 renal) [µM]	GI50 (SK-OV-3 ovarian) [µM]	GI50 (OVCAR-8 ovarian) [µM]	GI50 (COLO 205 colon) [µM]	GI50 (SK-MEL-2 melanoma) [µM]	GI50 (OVCAR-5 ovarian) [µM]	GI50 (EKVX NSCLC) [µM]	GI50 (MOLT-4 leukemia) [µM]	GI50 (HCT-116 colon) [µM]	GI50 (CAKI-1 renal) [µM]
NC(N)=NS(=O)(=O)c1ccc(NC(=O)c2cccn3c(=O)c4ccccc4nc23)cc1	> 100	> 100	> 100	> 100	34	> 100	85.9	> 100												
Clc1cc2nc[nH]c2cc1Cl		> 100	> 100	> 100	> 100	> 100	> 100	> 100	> 100	> 100										
COc1cccc(-c2cc(=O)c3cc(C)c(C)c(C(=O)O)c3o2)c1	> 100	> 100	> 100	> 100	> 100	> 100	> 100		> 100	> 100										
COc1ccc2nc(-c3ccc(Cl)cc3)cc(-c3nnc(SCC(=O)Nc4ccc(/C(C)=N\O)cc4)o3)c2c1		8.05	18.7	2.78	3.53	15.3	> 50		9.77	10.2	1.61	6.23	1.15	1.15	2.46	2.06	3.01	2.18		
COc1ccc(-c2cnc(SCC(=O)c3c(C)n(C)n(-c4ccccc4)c3=O)n2-c2ccc(OC)cc2)cc1	> 50	> 50		> 50	> 50	> 50	> 50	> 50	> 50	> 50	> 50		> 50	> 50	> 50	> 50	29.7	12.6	20.3	> 50
O=C(/C=C/c1ccc[nH]1)c1ccccc1	> 100	> 100	> 100	> 100	> 100		> 100	> 100	> 100	> 100										
CN(Cc1ccccc1)c1ncnc2ccc(Br)cc12	23.5	19.8	30.3	95.5	38.2		28.8	17.6	> 100	31.3	5.68	14.2	26.1	16.2	35.7	15.3		5.77	11.1	4.37
N#Cc1c(N)n(C2OC(CO)C(O)C2O)c2ncnc(N)c12 (stereo not given)	> 7.59			0.279	0.191	> 100	0.163	0.263		3.28										
COc1ccc(C(=C(C#N)C#N)c2ccc(OC)cc2)cc1	> 100	> 100		> 100	> 100	> 100	> 100	> 100	> 100	> 100										
[O-]c1ccccc1[C-]=Nc1ccccc1O.[O-]c1ccccc1[C-]=Nc1ccccc1O.[O]=[U]=[O]		55.5	71	66.7	51.6	62.4	65	37.3	37.3	> 100	28.9	43	14.8	19	13.2	21	24	2.95		12.5
Nc1c(C(=O)c2cccc(C(O)(CO)CO)c2)cnn1-c1ccc(F)cc1	> 25	> 25	> 25	> 25	> 25		> 25	> 25	> 25	> 25	> 25	> 25	> 25	> 25	> 25	> 25		> 25	> 25	> 25
O=C1c2cccc3c([N+](=O)[O-])ccc(c23)C(=O)N1CCCCl	3.16	> 10	> 10	> 10	> 10		5.95	> 10	> 10	> 10	> 10	> 10	3.86	> 10	> 10	> 10		2.41	1.71	> 10
O=S1(=O)OCc2ccccc21	> 100	> 100	> 100	> 100	> 100	> 100	78.9		> 100	> 100										
CC(C)(C)c1cc(O)c2c(c1O)C(=O)CCC2	> 100	> 100	> 100	> 100	> 100	> 100	53.8	82.3												
NNC(=O)C(O)C(O)C(O)CO (stereo not given)	> 100	> 100	> 100	> 100	> 100	> 100		> 100	> 100	> 100										
CO[C@H](C(=O)O[C@H]1C(=O)N2CCC3CCC1C32C)c1ccccc1 (stereo not given in full)	> 100		> 100	> 100	> 100	> 100	> 100	> 100	> 100	> 100										
CC1=CC[C@@H]2[C@@H](CC[C@@]2(C)O)C(C)(C)[C@H]1CC[C@@H]1[C@@]2(C)CC[C@@H](O)C(C)(C)O[C@@H]2CC[C@]1(C)O	27	> 100	> 100		38.1		47.5	54.2	> 100	> 100										
Cc1cc(N(CCC#N)CCC#N)ccc1/C=C(\NC(=O)/C=C/c1ccccc1)NC(=O)Nc1ccccc1C	> 100			> 100	> 100	> 100	> 100	> 100	> 100	> 100										
CC12CCC(=O)N1c1cc([N+](=O)[O-])ccc1N2 (stereo not given)	> 100		> 100	> 100	> 100	> 100	> 100		> 100											
